Laboratory results from patent US4456597A.

Tests used:
Type in all cases: cell-based
Conditions in all cases: 1.0 μg/ml
Human (spleen) = assay: IF induction in vitro, human spleen (Table 6)
Protocol: (§1) A spleen cell suspension (10^7 cells/ml) was prepared by the method of hereinafter described Experiment 1 using an Eagle MEM medium (commercial product of Nissui Seiyaku K.K., Tokyo) containing a 10% calf serum (which was replaced by a 10% fetal cattle serum in the cases of human tests), each of which fraction (1 ml) was added with a given concetration of the sample and incubated overnight at a given temperature. The cultured liquor was centrifuged to separate a supernatant which was used for determining the IF activity induced. In the case of humans, the fresh spleen was collected from a person (adult deceased by external wounds) and used for the preparation of a leucocytes suspension on each occasion, and also blood was collected from the vein at the upper arm of a person (adult), from which the serum was separated to use for the preparation of a serum suspension on each occasion.
(§2) The IF activities were determined by using the cells shown in Table 5 in a similar manner to that hereinafter described in Experiment 1.

spleen cell suspension [1] = assay: IF induction in vitro, rabbit (Table 6)
Protocol: as §1, §2

spleen cell suspension [2] = assay: IF induction in vitro, mouse (Table 6)
Protocol: as §1, §2

Substance: Poly I:C
- IF activity in vitro (Control) (Human (spleen)): < 10
- IF activity in vitro (Control) (spleen cell suspension [1]): 190
- IF activity in vitro (Control) (spleen cell suspension [2]): 80
